Experimental data as given in PMC3734177, “Design, Synthesis, Evaluation and Thermodynamics of 1-Substituted Pyridylimidazo[1,5-a]Pyridine Derivatives as Cysteine Protease Inhibitors” (PLoS ONE, 2013).
≈ marks a conversion by molar mass, not a printed value. Where “and” joins values, the source holds several entries; their conditions need not be identical. Equal values may be shown once. Read-outs that look alike come from different tables or passages of the source.

Key:
papain [1] = target: T1, papain (Carica papaya, UniProt P00784); test: Cysteine protease inhibitory activity, papain with Bz-DL-Arg-pNA substrate; type: biochemical
T1 construct: To solutions of active papain (final concentration: 0.05 mM); purchased Sigma Chemical Co., St. Louis, MO, USA
T1 sequence (P00784 134-345): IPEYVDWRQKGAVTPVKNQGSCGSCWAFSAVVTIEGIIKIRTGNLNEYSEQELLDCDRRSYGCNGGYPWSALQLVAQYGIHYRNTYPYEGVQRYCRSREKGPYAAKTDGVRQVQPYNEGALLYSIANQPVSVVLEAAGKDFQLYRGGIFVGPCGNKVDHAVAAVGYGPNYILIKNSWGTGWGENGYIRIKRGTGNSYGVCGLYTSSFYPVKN
Protocol: The capacity of the 1-pyridylimidazo[1,5-a]pyridine derivatives to inhibit cysteine proteases was tested using papain as the model enzyme. The proteolytic activity of the reaction mixtures was determined using Bz-DL-Arg-pNA as the chromogenic substrate. To solutions of active papain (final concentration: 0.05 mM) were added concentrated solutions of the different derivatives to final concentrations of 0.2 mM. […] The same procedure was used at 32°C and 42°C for thermodynamics studies. The kinetic parameters for the substrate hydrolysis were determined by measuring the initial rate of enzymatic activity. The inhibition constant Ki was determined by Dixon method and also by the Lineweaver–Burk equation. The Km value was calculated from the double-reciprocal equation by fitting the data into the computer software Origin 6.1. The Lineweaver–Burk plot was used to determine the types of inhibition. For the kinetic analysis and rate constant determinations, the assays were carried out in triplicate, and the average value was considered throughout this work.

papain [2] = target: T1, papain; test: Thermodynamics analysis of papain inhibition (Van't Hoff); type: biochemical; conditions: Value at 37°C
Protocol: Free energy changes of inhibition of papain against 1- substituted pyridylimidazo[1,5-a] pyridine derivatives (ΔG) were determined by the equation, [drawing 1] (1)
Temperature dependence of the inhibition constants was used to determine the thermodynamic parameters. Changes in enthalpy (ΔH) were determined from the Van’t Hoff plots by using the equation, [drawing 2] (2)
Where ΔH is enthalpy change, R is gas constant, ΔS is entropy change and T is the absolute temperature. The entropy change was obtained from the equation, [drawing 3] (3)

[3] = test system: Bacillus spp. (ATCC-14593); test: MIC, micro dilution method; type: cell-based; conditions: ATCC14593; Bacillus sp.
Protocol: (§1) The disk diffusion method was used for the preliminary antibacterial evaluation of 1-pyridylimidazo[1,5-a]pyridine derivatives. The MIC50 of these derivatives, showing inhibition in the preliminary tests, were further determined by the microtitre plate technique using micro dilution method. In brief, the bacterial strains (S. aureus, P. vulgaris, Group D Streptococci, Bacillus sp., E. coli, P. aeruginosa and S. morganii)) were grown and diluted to 2×10^5 colony-forming units (CFU)/ml in sodium phosphate buffer (SPB) containing 0.03% Luria–Bertani (LB) broth. The synthesized derivatives were dissolved in DMSO and their serial dilution was performed in 50 µL of LB medium in 96-well microtitre plate to achieve the required concentrations (0.1–10 µg/ml) with bacterial inoculums (5×10^4 CFU per well). DMSO was taken as negative control and Ceftriaxone and clotrimazole were taken as positive control. After incubation at 37°C overnight, the MICs were taken as the lowest inhibitor concentration at which the bacterial growth was inhibited. The average of three values was calculated and that was the MIC for the test material and bacterial strain. […]

[4] = test system: Escherichia coli (ATCC-25922); test: MIC, micro dilution method; type: cell-based; conditions: ATCC25922, E. coli
Protocol: as §1

[5] = test system: Proteus vulgaris (ATCC-29905); test: MIC, micro dilution method; type: cell-based; conditions: ATCC29905, P. vulgaris
Protocol: as §1

[6] = test system: Pseudomonas aeruginosa (ATCC-27853); test: MIC, micro dilution method; type: cell-based; conditions: ATCC27853
Protocol: as §1

[7] = test system: Staphylococcus aureus (ATCC-25923); test: MIC, micro dilution method; type: cell-based; conditions: ATCC25923, S. aureus
Protocol: as §1

[8] = test system: Group D Streptococci (ATCC-12959); test: MIC, micro dilution method; type: cell-based
Protocol: (§2) The disk diffusion method was used for the preliminary antibacterial evaluation of 1-pyridylimidazo[1,5-a]pyridine derivatives. The MIC50 of these derivatives, showing inhibition in the preliminary tests, were further determined by the microtitre plate technique using micro dilution method. In brief, the bacterial strains (S. aureus, P. vulgaris, Group D Streptococci, Bacillus sp., E. coli, P. aeruginosa and S. morganii)) were grown and diluted to 2×10^5 colony-forming units (CFU)/ml in sodium phosphate buffer (SPB) containing 0.03% Luria–Bertani (LB) broth. The synthesized derivatives were dissolved in DMSO and their serial dilution was performed in 50 µL of LB medium in 96-well microtitre plate to achieve the required concentrations (0.1–10 µg/ml) with bacterial inoculums (5×10^4 CFU per well). DMSO was taken as negative control and Ceftriaxone and clotrimazole were taken as positive control. After incubation at 37°C overnight, the MICs were taken as the lowest inhibitor concentration at which the bacterial growth was inhibited. The average of three values was calculated and that was the MIC for the test material and bacterial strain.
(§3) For the agar plate count method, 25 µL aliquots of bacteria at 1×10^5 CFU/ml in SPB containing 0.03% LB broth were incubated with 25 µL of diluted compounds for 2 h at 37°C. The mixtures of bacteria and compounds were serially diluted 10-fold with SPB and plated on LB plates that were incubated at 37°C overnight. Bacterial colonies were enumerated the following day.

[9] = test system: Serratia morganii (ATCC- 31665); test: MIC, micro dilution method; type: cell-based; conditions: ATCC31665
Protocol: as §2, §3

[10] = test system: Bacillus spp. (ATCC-14593); test: MBC, sub cultivation from MIC plate; type: cell-based; conditions: ATCC14593, Bacillus sp.
Protocol: (§4) After having determined the MICs, bacterial strains from the wells of the microtitre plate with no visible bacterial growth were removed for serial sub cultivation of 2 µl into another new microtitre plate containing 100 µl of broth per well and further incubated for 24 h. The lowest concentration with no visible growth was defined as MBC [28], indicating 99.5% killing of the original inoculum. The absorbance of each well was measured at a wavelength of 620 nm by Microplate Manager 4.0 (Bio-Rad laboratories) and compared with a blank. Solvent (DMSO) was used as a negative control. Three replicates were done for each compound and experiment was repeated two times.

[11] = test system: Escherichia coli (ATCC-25922); test: MBC, sub cultivation from MIC plate; type: cell-based; conditions: ATCC25922, E. coli
Protocol: as §4

[12] = test system: Group D Streptococci (ATCC-12959); test: MBC, sub cultivation from MIC plate; type: cell-based
Protocol: as §4

[13] = test system: Proteus vulgaris (ATCC-29905); test: MBC, sub cultivation from MIC plate; type: cell-based; conditions: ATCC29905, P. vulgaris
Protocol: as §4

[14] = test system: Pseudomonas aeruginosa (ATCC-27853); test: MBC, sub cultivation from MIC plate; type: cell-based
Protocol: as §4

[15] = test system: Serratia morganii (ATCC- 31665); test: MBC, sub cultivation from MIC plate; type: cell-based
Protocol: as §4

[16] = test system: Staphylococcus aureus (ATCC-25923); test: MBC, sub cultivation from MIC plate; type: cell-based; conditions: ATCC25923, S. aureus
Protocol: as §4

[17] = test system: Bacillus spp. (ATCC-14593); test: MIC, micro dilution method; type: cell-based; conditions: ATCC14593; Bacillus sp.; remark: listed apart in the source

CC(C)(C)c1cc(-c2nc(-c3ccccn3)c3ccccn23)cc(C(C)(C)C)c1O [Compound 3d, 1-(2-pyridyl)-3-(3,5-di-tert-butyl-4-hydroxyphenyl) imidazo[1,5-a]pyridine]
Ki (papain [1]; 32°C): 110 µM
Ki (papain [1]; 37°C): 99.3 µM
Ki (papain [1]; 42°C): 89.2 µM
Type of inhibition (papain [1]; Lineweaver–Burk plot): Non -Competitive
IC50 (papain [1]; papain): 96.5 µM
ΔG (free energy of binding) (papain [2]): −5.64 Kcalmol^−1 and −5.64(±0.24) Kcalmol^−1
ΔS (entropy change) (papain [2]): 59.73(±1.93) Jmol-K^−1
ΔH (enthalpy change) (papain [2]; Van't Hoff plot): −5.2 (±0.84) KJmol^−1
MIC50 [3]: 1.4 µg/mL (≈ 3.5 µM)
MIC50 [4]: 1.2 µg/mL (≈ 3 µM)
MIC90 [4]: 2.3 µg/mL (≈ 5.76 µM)
MIC50 [5]: 0.9 µg/mL (≈ 2.25 µM)
MIC90 [5]: 1.7 µg/mL (≈ 4.25 µM)
MIC50 [6]: 1.2 µg/mL (≈ 3 µM)
MIC90 [6]: 2 µg/mL (≈ 5.01 µM)
MIC50 [7]: 1.2 µg/mL (≈ 3 µM)
MIC90 [7]: 2.3 µg/mL (≈ 5.76 µM)
MIC50 [8]: 1 µg/mL (≈ 2.5 µM)
MIC90 [8]: 1.9 µg/mL (≈ 4.76 µM)
MIC50 [9]: 1.1 µg/mL (≈ 2.75 µM)
MIC90 [9]: 2.1 µg/mL (≈ 5.26 µM)
MBC ([10]; read-out: MBC50): 2.5 µg/mL (≈ 6.26 µM)
MBC ([10]; read-out: MBC90): 4.7 µg/mL (≈ 11.8 µM)
MBC ([11]; read-out: MBC50): 2.5 µg/mL (≈ 6.26 µM)
MBC ([11]; read-out: MBC90): 4.9 µg/mL (≈ 12.3 µM)
MBC ([12]; read-out: MBC50): 2.3 µg/mL (≈ 5.76 µM)
MBC ([12]; read-out: MBC90): 4.4 µg/mL (≈ 11 µM)
MBC ([13]; read-out: MBC50): 1.7 µg/mL (≈ 4.25 µM)
MBC ([13]; read-out: MBC90): 3.4 µg/mL (≈ 8.51 µM)
MBC ([14]; ATCC27853, read-out: MBC50): 2.4 µg/mL (≈ 6.01 µM)
MBC ([14]; ATCC27853, read-out: MBC90): 4.4 µg/mL (≈ 11 µM)
MBC ([15]; ATCC31665, read-out: MBC50): 2.4 µg/mL (≈ 6.01 µM)
MBC ([15]; ATCC31665, read-out: MBC90): 4.4 µg/mL (≈ 11 µM)
MBC ([16]; read-out: MBC50): 2.6 µg/mL (≈ 6.51 µM)
MBC ([16]; read-out: MBC90): 5.2 µg/mL (≈ 13 µM)
MIC90 [17]: 2.6 µg/mL (≈ 6.51 µM)
